Experiments:
[1] = system: PC3 cells stably transfected with GFP-LC3; parameters: method as in PMID 20811583; details: cited from earlier work
[2] = system: pEtk, pSrc, pSTAT3, Myc and BCL2 in PC3-AZD20 cells; assay: Western blot of pEtk, pSrc, pStat3, Myc and BCL2; format: cell-based, human; details: PC3-AZD20, 10 μM
Protocol: PC3-AZD20 cells were seeded at 10^6 cells/well in 6 well plates overnight. The cells were treated with AZD0530 or CTA095 at 10 μM. Apoptosis was analyzed using Annexin-V FITC apoptosis detection kit. The mRNA levels of Myc and BCL2 were measured using real-time PCR. pEtk, Etk, pSrc, Src, pStat3, Stat3, Myc and BCL2 levels were measured using the corresponding antibodies through a Western blot.
Figure 12 CTA095 induces apoptosis in Src inhibitor resistant prostate cancer cells through Myc and BCL2 inhibition. PC3-AZD20 (PC3 cell resistant to 20 μM AZD0530) cells were seeded at 10^6 cells/well in 6 well plates overnight. The cells were treated with AZD0530 or CTA095 at 10 μM. Apoptosis was analyzed using Annexin-V FITC apoptosis detection kit (A). The mRNA levels of Myc and BCL2 were measured using real-time PCR (B). pEtk, Etk, pSrc, Src, pStat3, Stat3, Myc and BCL2 levels were measured using the corresponding antibodies through Western blot (C). Columns, mean; bars, standard deviation, n = 3.

PC3-AZD20 cells = assay: MTT cell viability in Src inhibitor resistant cells; format: cell-based, human; details: 72 h
Protocol: PC3 and PC3-AZD20 (PC3 cell resistant to 20 μM AZD0530, which is from AstraZeneca through MTA with Dr. Chris Evans) cells were seeded at 2000 cells/well in 96 well plates overnight. The cells were treated with AZD0530 or CTA095 at the indicated concentrations. Cell viability was measured using an MTT assay after 72 h.
Figure 11 CTA095 overcomes Src inhibitor resistance in prostate cancer cells. PC3 and PC3-AZD20 (PC3 cell resistant to 20 μM AZD0530) cells were seeded at 2000 cells/well in 96 well plates overnight. The cells were treated with AZD0530 or CTA095 at the indicated concentrations. Cell viability was measured using MTT assay after 72 h. Symbols, mean; bars, standard deviation, n = 3.

CN1CCN(CCOc2cc(OC3CCOCC3)c3c(Nc4c(Cl)ccc5c4OCO5)ncnc3c2)CC1 [AZD0530, reference compound]
autophagy in prostate cancer cells [1]: induces autophagy | pEtk, pSrc, pSTAT3, Myc and BCL2 protein levels [2]: pSrc and pSTAT3, but not c-myc and Bcl-2 were decreased | cell viability / sensitivity of PC3-AZD20 cells (PC3-AZD20 cells): resistant
